In BindingDB's records for PubMed 31761383 (n/a, 2020):

Experiments:
[1] = biological target: T1, Amine oxidase [flavin-containing] A (Rattus norvegicus, UniProt P21396); test: Inhibition of rat brain synaptosome MAO-A
T1 sequence (P21396 whole entry): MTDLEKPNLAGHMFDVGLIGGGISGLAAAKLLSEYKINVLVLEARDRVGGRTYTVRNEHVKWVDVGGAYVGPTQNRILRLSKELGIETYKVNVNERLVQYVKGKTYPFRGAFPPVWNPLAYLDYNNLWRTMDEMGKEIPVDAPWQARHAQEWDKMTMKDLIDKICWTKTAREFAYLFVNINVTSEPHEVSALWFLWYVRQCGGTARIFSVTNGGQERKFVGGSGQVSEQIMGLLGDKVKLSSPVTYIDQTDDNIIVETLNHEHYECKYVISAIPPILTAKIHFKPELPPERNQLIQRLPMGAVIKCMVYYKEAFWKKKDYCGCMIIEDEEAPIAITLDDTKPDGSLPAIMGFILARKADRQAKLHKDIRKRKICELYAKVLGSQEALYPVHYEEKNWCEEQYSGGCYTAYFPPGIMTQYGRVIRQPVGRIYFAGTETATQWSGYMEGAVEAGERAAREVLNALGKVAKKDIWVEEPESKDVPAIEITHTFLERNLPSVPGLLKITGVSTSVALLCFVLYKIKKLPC

[2] = biological target: T2, Amine oxidase [flavin-containing] B (Rattus norvegicus, UniProt P19643); test: Inhibition of rat brain synaptosome MAO-B
T2 sequence (P19643 whole entry): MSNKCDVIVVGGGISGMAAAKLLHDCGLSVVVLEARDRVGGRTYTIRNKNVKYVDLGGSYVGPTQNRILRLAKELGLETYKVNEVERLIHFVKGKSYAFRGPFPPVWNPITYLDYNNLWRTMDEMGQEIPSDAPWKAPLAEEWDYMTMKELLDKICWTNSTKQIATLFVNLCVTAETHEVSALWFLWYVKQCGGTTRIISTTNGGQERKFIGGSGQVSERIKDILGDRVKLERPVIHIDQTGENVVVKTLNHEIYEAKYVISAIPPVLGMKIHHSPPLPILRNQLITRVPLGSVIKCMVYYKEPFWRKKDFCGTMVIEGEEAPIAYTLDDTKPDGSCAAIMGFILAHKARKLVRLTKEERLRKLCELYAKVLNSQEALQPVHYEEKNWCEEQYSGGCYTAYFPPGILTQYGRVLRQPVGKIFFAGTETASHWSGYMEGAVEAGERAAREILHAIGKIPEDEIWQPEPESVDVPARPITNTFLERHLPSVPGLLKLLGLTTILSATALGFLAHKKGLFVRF

An IC50 [1] of 2.3 nM and an IC50 [2] of 13 nM were found for `Cc1c(C(=O)CC(C#N)C#N)c(=O)n(-c2ccccc2)n1C` in this work.
